Assay results published in US9856234B2, “Heterocyclic compounds and their use as glycogen synthase kinase 3 inhibitors” (ABBVIE INC., priority 2006, dated 2018).

Biological target: T1, human Glycogen Synthase Kinase-3 beta (hGSK-3β) (Homo sapiens, UniProt P49841)
T1 construct: purchased Upstate cell signaling solutions
Experiment: Biochemical hGSK-3Beta assay (33P-ATP phosphorylation of biotinylated peptide substrate)
Conditions: 10 μM ATP, 30 minutes at room temperature; read-out: GSK-3β IC50
Procedure: Methods—Biochemical hGSK-3Beta Assay
Compounds were tested for their ability to inhibit human Glycogen Synthase Kinase-3 beta (hGSK-3β) to phosphorylate biotin-[…](pS)EDEEE. Compounds were incubated with 0.5 μCi 33P-ATP, 10 μM ATP, 0.0125 U hGSK-3β (Upstate cell signaling solutions) and 1 μM substrate (biotin-[…](pS)EDEEE) in 50 mM HEPES, 10 mM MgCl2, […], 1 mM DTT, 0.0075% Triton, 2% DMSO (total volume 50 μL) for 30 minutes at room temperature. The incubation was stopped by addition of an equal volume of 100 mM EDTA, 4M NaCl. 80 μL of this mixture was added to streptavidin-coated Flashplates (PerkinElmer). Following a wash step, 33P incorporation was quantified on a MicroBeta microplate liquid scintillation counter (Perkin Elmer). IC50's were determined by fitting a sigmoidal dose-response curve to the counts obtained at the different concentrations in Graph Pad Prism.

T1 sequence (P49841 whole entry): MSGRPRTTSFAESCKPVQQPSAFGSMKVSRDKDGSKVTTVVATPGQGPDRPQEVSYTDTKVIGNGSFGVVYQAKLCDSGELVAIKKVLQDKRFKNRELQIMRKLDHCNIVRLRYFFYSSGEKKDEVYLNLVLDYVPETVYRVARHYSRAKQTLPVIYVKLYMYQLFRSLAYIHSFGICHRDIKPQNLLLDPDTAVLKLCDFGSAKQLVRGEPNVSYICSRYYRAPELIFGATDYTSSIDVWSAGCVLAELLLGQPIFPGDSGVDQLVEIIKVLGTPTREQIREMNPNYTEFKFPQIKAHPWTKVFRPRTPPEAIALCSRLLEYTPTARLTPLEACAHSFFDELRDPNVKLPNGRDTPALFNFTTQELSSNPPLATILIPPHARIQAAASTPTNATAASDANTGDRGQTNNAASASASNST

Compound	IC50 [nM]
O=C(Nc1cnccn1)Nc1cncc2ccccc12 [Example 6, 1-Isoquinolin-4-yl-3-pyrazin-2-yl-urea]	100 to 10000
O=C(Nc1ccccn1)Nc1ccnc2cc(C(F)(F)F)ccc12 [Example 29, 1-(Pyridin-2-yl)-3-(7-(trifluoromethyl)quinolin-4-yl)urea]	100 to 10000
O=C(Nc1cnccn1)Nc1ccnc2c(Cl)cccc12 [Example 32, 1-(8-Chloroquinolin-4-yl)-3-(pyrazin-2-yl)urea]	< 100
O=C(Nc1cnccn1)Nc1ccnc2ccc(Br)cc12 [Example 2, 1-(6-Bromo-quinolin-4-yl)-3-pyrazin-2-yl-urea]	< 100
1-Methyl-1-pyrazin-2-yl-3-(6-trifluoromethyl-quinolin-4-yl)-urea [Example 22]	> 10000
1-(8-Bromoquinolin-4-yl)-3-(pyrazin-2-yl)urea [Example 37]	< 100
1-(7-Bromoquinolin-4-yl)-3-(pyrazin-2-yl)urea [Example 28]	< 100
O=C(Nc1cnccn1)Nc1cccc2ccccc12 [Example 7, 1-Naphthalen-1-yl-3-pyrazin-2-yl-urea]	> 10000
1-(Pyrazin-2-yl)-3-(pyridin-4-yl)urea [Example 24]	100 to 10000
O=C(Nc1cnccn1)Nc1cccc2ncccc12 [Example 21, 1-Pyrazin-2-yl-3-quinolin-5-yl-urea]	100 to 10000
O=C(Nc1ccccc1)Nc1ccnc2ccccc12 [Example 30, 1-Phenyl-3-(quinolin-4-yl)urea, reference compound]	> 10000
O=C(Nc1cnccn1)Nc1cc(C(F)(F)F)nc2ccccc12 [Example 1, 1-Pyrazin-2-yl-3-(2-trifluoromethyl-quinolin-4-yl)-urea]	100 to 10000
O=C(Nc1cnc2ccccc2c1)Nc1cnccn1 [Example 40, 1-(Pyrazin-2-yl)-3-(quinolin-3-yl)urea, reference compound]	> 10000
O=C(Nc1cnccn1)Nc1c2c(nc3ccccc13)CCCC2 [Example 5, 1-Pyrazin-2-yl-3-(1,2,3,4-tetrahydro-acridin-9-yl)-urea]	100 to 10000
O=C(Nc1cnccn1)Nc1ccnc2c(I)cccc12 [Example 34, 1-(8-Iodoquinolin-4-yl)-3-(pyrazin-2-yl)urea]	< 100
O=C(Nc1cnccn1)Nc1ccnc2cc(I)ccc12 [Example 27, 1-(7-Iodoquinolin-4-yl)-3-(pyrazin-2-yl)urea]	< 100
O=C(Nc1cnccn1)Nc1c(Br)cnc2ccccc12 [Example 35, 1-(3-Bromoquinolin-4-yl)-3-(pyrazin-2-yl)urea]	100 to 10000
Cc1cccc2c(NC(=O)Nc3cnccn3)ccnc12 [Example 31, 1-(8-Methylquinolin-4-yl)-3-(Pyrazin-2-yl)urea]	< 100
Cc1cc(NC(=O)Nc2cnccn2)c2ccccc2n1 [Example 12, 1-(2-Methyl-quinolin-4-yl)-3-pyrazin-2-yl-urea]	100 to 10000
O=C(Nc1cnccn1)Nc1cccc2ccncc12 [Example 19, 1-Isoquinolin-8-yl-3-pyrazin-2-yl-urea]	100 to 10000
O=C(Nc1cnccn1)Nc1cccc2cnccc12 [Example 20, 1-Isoquinolin-5-yl-3-pyrazin-2-yl-urea]	100 to 10000
